From US20150238617A1, “SILK RESERVOIRS FOR SUSTAINED DELIVERY OF ANTI-CANCER AGENTS” (TUFTS UNIVERSITY, priority 2012, published 2015)
≈ marks a conversion by molar mass, not a printed value.

What was measured:
[1] = cited from earlier work
[2] = cited from earlier work; remark: listed apart in the source
[3] = cited from earlier work; remark: listed apart in the source
[4] = cited from earlier work; remark: listed apart in the source
[5] = in vivo pharmacokinetics, plasma anastrozole by LC-MS/MS; set-up: species or system female Sprague-Dawley rats
Experimental: A 91-day pharmacokinetic study was conducted on female Sprague-Dawley rats (≧250 g). Test article animals were dosed by a single rod implantation, while positive drug control animals were dosed by a single injection of an ethanol:water (3:7, v/v) solution of equivalent dose. Prior to dosing, all animals were anesthetized by intraperitoneal injection of a cocktail containing ketamine HCl (75 mg/kg) and Xylazine HCl (5 mg/kg). Following anesthesia, the dorsal surface of all animals were shaved and prepared for aseptic administration by wiping with betadine and 70% isopropyl alcohol (3 times each). Animals were placed on a sterile surgical field and covered with Steridrape™. Dosing sites were closed with wound clips. The administration site was circled with indelible ink for future identification of location. Following dosing, all animals were placed in a warmed recovery area and observed until recovered from anesthesia and ambulatory. All animals were observed throughout dosing and each scheduled collection. Body weights were collected weekly in addition to the pre-dose body weight during the duration of the study. Serial blood samples were collected via tail vein or jugular vein at pre-dose, 2 h, 6 h, 24 h (1 d), 2 d, 4 d, 7 d, 10 d, 14 d, 21 d, 28 d, 35 d, 42 d, 49 d, 56 d, 63 d, 70 d, 77 d, 84 d and 91 d and analyzed via LC-MS/MS. Blood samples were stored on wet ice until processed to plasma by centrifugation within 30 min of collection. Plasma were stored at −80° C. until LC-MS/MS analysis.
Briefly, 150 μl of frozen in vivo sample or blank plasma (for double blank, blank and standards) was completely thawed and briefly centrifuged (2000 G, 3 min, 4° C.). […] For extraction, 1 ml diethyl ether:dichloromethane (7:3, v/v) was added to 25 μl of plasma (blank, standard or sample) and 10 μl of aqueous internal standard (100 ng/ml Chlorpheniramine) or deionized water (for double blank) in a glass centrifuge tube using glass serological pipettes and vortexed for 40 s. […]
The auto-sampler of the LC system was kept at 5° C. […] The limit of quantitation (LOQ) was 0.6 ng/ml.

[6] = effective steady state diffusion coefficient from cylindrical silk reservoir; type: physicochemical; settings: anastrozole diffusion in silk reservoir rods
Source text: and different effective length, le values of 10 or 30 mm.

[7] = stability of anastrozole under in vitro release conditions (LC-MS/MS); settings: deionized water, 0.02 wt. % NaN3, 37° C., longest inter-sampling duration 1 week
Experimental: The release volume was determined to ensure perfect sink conditions in case of a complete burst release according to:
where V, L and S are the release volume, drug loading and aqueous solubility, respectively. At pre-determined time points, 1 ml of the release medium was sampled. After each sampling, the whole medium was exchanged with fresh buffer.

## CC(C)(C#N)c1cc(Cn2cncn2)cc(C(C)(C)C#N)c1 [anastrozole]
[1]; at 25° C.
  water solubility: 500 µg/mL (≈ 1700 µM)
[1]; value used in diffusion equation
  aqueous solubility Cs of anastrozole in water: 5000 µg/mL
[2]
  log P(octanol/water): 1.58
[3]
  pKa: 1.4
[4]; Product Monograph value
  terminal elimination half-life t1/2: 50 h
  volume of distribution V: 74 L
[4]; factors in reported accumulation
  steady state plasma concentration Css: 25 ng/mL
[5]; female, Sprague-Dawley, rat, plasma, sc, single s.c. injection of solution, high and low dose, read-out: apparent terminal elimination half-life (converted)
  half-life: ~6 h
[5]; single s.c. injection of solution (water:ethanol 7:3), high (14 mg) and low (5.8 mg) dose
  time of peak plasma concentration: 6 h
[5]; single s.c. injection of solution, high and low dose
  time to decline to background plasma levels: ≤ 96 h
[6]
  effective steady state diffusion coefficient De: 2.4×10^−8 cm^2/s
[7]
  degradation of Anastrozole under release conditions: No significant degradation
